Experiment: Sustained release study (fluorescence intensity vs. time)
Format: physicochemical
Procedure: Step 3: Sustained Release Study
FIGS. 6a and 6b show the sustained release of chloramphenicol (at 1 and 4 molar concentrations, respectively) from the liposomes described above as a function of fluorescence intensity vs. time at a release rate of about 0.65 mg/day.

release rate (sustained release from reverse micelles (FIG. 6c))	release rate (sustained release from liposomes, 1 and 4 molar concentrations (FIGS. 6a, 6b))	Compound
about 113 mg/day	–	vitamin E
–	about 0.65 mg/day	O=C(N[C@H](CO)[C@H](O)c1ccc([N+](=O)[O-])cc1)C(Cl)Cl [chloramphenicol]
